The record followed here is ChEMBL document CHEMBL3739275, “Tryptophan dendrimers that inhibit HIV replication, prevent virus entry and bind to the HIV envelope glycoproteins gp120 and gp41” (Eur J Med Chem, 2015).

Calls of active or inactive are those of the source. The rule behind the calls is not given here.

For data set [1], the system named is Human immunodeficiency virus 2. Briefly: Antiviral activity against HIV2 ROD infected in human CEM cells assessed as inhibition of virus-induced giant cell formation after 4 to 5 days by microscopic analysis. The data set is classed as functional, organism-based. To be noted: Human immunodeficiency virus 2, ISOLATE ROD, CCRF-CEM.
Data set [2] relates to Human immunodeficiency virus 1. The experiment in a line: Antiviral activity against HIV1 3B infected in human CEM cells assessed as inhibition of virus-induced giant cell formation after 4 to 5 days by microscopic analysis. The settings on record: CCRF-CEM; for EC50: Human immunodeficiency virus 1, 3B. The data set is classed as functional, organism-based.
Data set [3] in a line: Cytotoxicity against human CEM cells assessed as cell count after 3 days. The class given is cell-based. The settings on record: CEM cells (CCRF-CEM).
Data set [4] can be described thus: Binding affinity to recombinant HIV1 3B gp-120 expressed in CHO cells by surface plasmon resonance assay. To be noted: read-out: Kd(app). The arrangement: species or system Human immunodeficiency virus 1.
Data set [5] deals with Human immunodeficiency virus 1. Briefly: Antiviral activity against HIV1 NL4.3 infected in human MT4 cells assessed as inhibition of virus-induced cytopathic effect after 5 days by MTS/phenazine ethosulfate method. The settings on record: Human immunodeficiency virus 1, NL4.3, MT4, 120 h. The class given is functional, organism-based. In general terms: Cytopathic effects are the visible damage that an infection or toxin causes in cultured cells.

For data set [6], the system named is Human immunodeficiency virus 1. Briefly: Antiviral activity against HIV1 3B infected in human MT4 cells assessed as inhibition of early viral infection to host cells by measuring p24 production at 10 uM treated 1 to 25 hrs of post infection by ELISA. The class given is functional, organism-based.
A short description of data set [7]: Binding affinity to recombinant HIV1 3B gp-120 expressed in CHO cells at 50 uM by surface plasmon resonance assay. The settings on record: Human immunodeficiency virus 1. (Surface plasmon resonance follows binding to a sensor surface in real time, without labels.)
For data set [8], the system named is Human immunodeficiency virus 1. The experiment in a line: Binding affinity to recombinant HIV1 HxB2 gp-41 at 50 uM by surface plasmon resonance assay.
Data set [9] is described as follows: Selectivity index, ratio of CC50 for human CEM cells to EC50 for HIV1 3B. The class given is toxicity, cell-based, CCRF-CEM. The settings on record: read-out: Ratio CC50/EC50.

As a reminder, the EC50 is the concentration needed to bring the measured effect to its halfway point. One may read the CC50 as the concentration giving 50% cytotoxicity. Turning to `O=C(O)CCC(CCC(=O)O)(CCC(=O)O)NC(=O)CN(CCN(CC(=O)NC(CCC(=O)O)(CCC(=O)O)CCC(=O)O)CC(=O)NC(CCC(=O)O)(CCC(=O)O)CCC(=O)O)CC(=O)NC(CCC(=O)O)(CCC(=O)O)CCC(=O)O`, the EC50 in [1] and in data set [2] was greater than 250 µM each time. Further, the half-maximal cytotoxic concentration (CC50) at 72 h in data set [3] is greater than 250 µM.
Regarding `O=C(O)CCC(CCC(=O)O)(CCC(=O)O)NC(=O)C[C@H]1C[C@@H](CC(=O)NC(CCC(=O)O)(CCC(=O)O)CCC(=O)O)C[C@@H](CC(=O)NC(CCC(=O)O)(CCC(=O)O)CCC(=O)O)C1`, the 50% effective concentration (EC50) in data set [1] and in data set [2] was greater than 250 µM each time. For the same compound, the cytotoxic concentration (CC50) at 72 h in data set [3] was greater than 250 µM.
`CCc1c(CNc2nc(N[C@@H](Cc3c[nH]c4ccccc34)C(=O)O)nc(N[C@@H](Cc3c[nH]c4ccccc34)C(=O)O)n2)c(CC)c(CNc2nc(N[C@@H](Cc3c[nH]c4ccccc34)C(=O)O)nc(N[C@@H](Cc3c[nH]c4ccccc34)C(=O)O)n2)c(CC)c1CNc1nc(N[C@@H](Cc2c[nH]c3ccccc23)C(=O)O)nc(N[C@@H](Cc2c[nH]c3ccccc23)C(=O)O)n1`: in data set [4], the Kd came to 14 µM. Besides, the cytotoxic concentration (CC50) at 72 h in data set [3] is greater than 250 µM.
As to `O=C(CCC(CCC(=O)N[C@@H](Cc1c[nH]c2ccccc12)C(=O)O)(CCC(=O)N[C@H](Cc1c[nH]c2ccccc12)C(=O)O)NC(=O)CN(CC(=O)NC(CCC(=O)N[C@@H](Cc1c[nH]c2ccccc12)C(=O)O)(CCC(=O)N[C@H](Cc1c[nH]c2ccccc12)C(=O)O)CCC(=O)N[C@H](Cc1c[nH]c2ccccc12)C(=O)O)CC(=O)NC(CCC(=O)N[C@H](Cc1c[nH]c2ccccc12)C(=O)O)(CCC(=O)N[C@H](Cc1c[nH]c2ccccc12)C(=O)O)CCC(=O)N[C@H](Cc1c[nH]c2ccccc12)C(=O)O)N[C@@H](Cc1c[nH]c2ccccc12)C(=O)O`, the 50% effective concentration (EC50) in [5] amounted to 2.5 µM; in data set [2], 3.2 µM. Besides, the outcome in data set [6], in data set [7] and in data set [8] was Active. In data set [2], the Activity entry is “Dose-dependent effect”. Moreover, the half-maximal cytotoxic concentration (CC50) at 72 h in data set [3] was determined as 59 µM.
For the compound `CCc1c(CC(=O)NC(CCC(=O)N[C@@H](Cc2c[nH]c3ccccc23)C(=O)O)(CCC(=O)N[C@@H](Cc2c[nH]c3ccccc23)C(=O)O)CCC(=O)N[C@H](Cc2c[nH]c3ccccc23)C(=O)O)c(CC)c(CC(=O)NC(CCC(=O)N[C@@H](Cc2c[nH]c3ccccc23)C(=O)O)(CCC(=O)N[C@H](Cc2c[nH]c3ccccc23)C(=O)O)CCC(=O)N[C@H](Cc2c[nH]c3ccccc23)C(=O)O)c(CC)c1CC(=O)NC(CCC(=O)N[C@@H](Cc1c[nH]c2ccccc12)C(=O)O)(CCC(=O)N[C@H](Cc1c[nH]c2ccccc12)C(=O)O)CCC(=O)N[C@H](Cc1c[nH]c2ccccc12)C(=O)O`, in data set [2], the Activity result was “Dose-dependent effect” and the EC50 is 6.2 µM. Also, in [7], the result was Active. The CC50 at 72 h in [3] is greater than 100 µM. Further, in data set [8], the result was Active.
On to `CCc1c(CC(=O)NC(CCC(=O)O)(CCC(=O)O)CCC(=O)O)c(CC)c(CC(=O)NC(CCC(=O)O)(CCC(=O)O)CCC(=O)O)c(CC)c1CC(=O)NC(CCC(=O)O)(CCC(=O)O)CCC(=O)O`, for which the concentration for a half-maximal effect (EC50) in data set [1] and in [2] was greater than 250 µM throughout. The CC50 at 72 h in data set [3] was greater than 250 µM.
For the compound `CN[C@@H]1[C@H](O[C@@H]2OC[C@@H](O)[C@H](O)[C@H]2O)[C@@H](O)[C@H](O[C@H]2c3cc(C)c(C(=O)N[C@H](C)C(=O)O)c(O)c3-c3c(cc4c(c3O)C(=O)c3cc(OC)cc(O)c3C4=O)[C@@H]2O)O[C@@H]1C` [PRADIMICIN A], in [3], the CC50 at 72 h was greater than 100 µM.
For the compound `C[C@H](Cn1cnc2c(N)ncnc21)OCP(=O)(O)O` [TENOFOVIR ANHYDROUS], in data set [3], the CC50 at 72 h is greater than 100 µM.
Turning to `O=C(CCC(CCC(=O)N[C@@H](Cc1c[nH]c2ccccc12)C(=O)O)(CCC(=O)N[C@@H](Cc1c[nH]c2ccccc12)C(=O)O)NC(=O)CN(CCN(CC(=O)NC(CCC(=O)N[C@@H](Cc1c[nH]c2ccccc12)C(=O)O)(CCC(=O)N[C@@H](Cc1c[nH]c2ccccc12)C(=O)O)CCC(=O)N[C@H](Cc1c[nH]c2ccccc12)C(=O)O)CC(=O)NC(CCC(=O)N[C@@H](Cc1c[nH]c2ccccc12)C(=O)O)(CCC(=O)N[C@H](Cc1c[nH]c2ccccc12)C(=O)O)CCC(=O)N[C@H](Cc1c[nH]c2ccccc12)C(=O)O)CC(=O)NC(CCC(=O)N[C@@H](Cc1c[nH]c2ccccc12)C(=O)O)(CCC(=O)N[C@H](Cc1c[nH]c2ccccc12)C(=O)O)CCC(=O)N[C@H](Cc1c[nH]c2ccccc12)C(=O)O)N[C@@H](Cc1c[nH]c2ccccc12)C(=O)O`, the figures for the EC50 in [1] and in [2] were no less than 30 µM and 11.3 µM, respectively. Further, the Activity entry in data set [2] is “Dose-dependent effect”. The result in data set [7] and in [8] was Active. Moreover, in data set [3], the cytotoxic concentration (CC50) at 72 h is greater than 30 µM.
As to `O=C(CCC(CCC(=O)N[C@@H](Cc1c[nH]c2ccccc12)C(=O)O)(CCC(=O)N[C@H](Cc1c[nH]c2ccccc12)C(=O)O)NC(=O)[C@H]1C[C@@H](C(=O)NC(CCC(=O)N[C@@H](Cc2c[nH]c3ccccc23)C(=O)O)(CCC(=O)N[C@H](Cc2c[nH]c3ccccc23)C(=O)O)CCC(=O)N[C@H](Cc2c[nH]c3ccccc23)C(=O)O)C[C@@H](C(=O)NC(CCC(=O)N[C@@H](Cc2c[nH]c3ccccc23)C(=O)O)(CCC(=O)N[C@H](Cc2c[nH]c3ccccc23)C(=O)O)CCC(=O)N[C@H](Cc2c[nH]c3ccccc23)C(=O)O)C1)N[C@@H](Cc1c[nH]c2ccccc12)C(=O)O`, the figures for the EC50 in data set [5] and in data set [2] were 2 µM and 4.5 µM, respectively. Further, in [2], the Activity result was “Dose-dependent effect”. Besides, the result in data set [7] and in data set [8] was Active. In addition, the half-maximal cytotoxic concentration (CC50) at 72 h in [3] is greater than 250 µM. Also, the selectivity ratio in [9] was greater than 55.
On to `O=C(CCC(CCC(=O)N[C@@H](Cc1c[nH]c2ccccc12)C(=O)O)(CCC(=O)N[C@H](Cc1c[nH]c2ccccc12)C(=O)O)NC(=O)c1cc(C(=O)NC(CCC(=O)N[C@@H](Cc2c[nH]c3ccccc23)C(=O)O)(CCC(=O)N[C@H](Cc2c[nH]c3ccccc23)C(=O)O)CCC(=O)N[C@H](Cc2c[nH]c3ccccc23)C(=O)O)cc(C(=O)NC(CCC(=O)N[C@@H](Cc2c[nH]c3ccccc23)C(=O)O)(CCC(=O)N[C@H](Cc2c[nH]c3ccccc23)C(=O)O)CCC(=O)N[C@H](Cc2c[nH]c3ccccc23)C(=O)O)c1)N[C@@H](Cc1c[nH]c2ccccc12)C(=O)O`, for which the 50% effective concentration (EC50) in data set [5] worked out at 1.3 µM; in data set [2] it was 2.6 µM. Besides, the Activity entry in data set [2] was “Dose-dependent effect”. Also, the outcome in data set [7] and in [8] was Active. Besides, in data set [3], the CC50 at 72 h amounted to 53 µM.
With `O=C(CCC(CCC(=O)N[C@@H](Cc1c[nH]c2ccccc12)C(=O)O)(CCC(=O)N[C@H](Cc1c[nH]c2ccccc12)C(=O)O)NC(=O)CCC(CCC(=O)NC(CCC(=O)N[C@@H](Cc1c[nH]c2ccccc12)C(=O)O)(CCC(=O)N[C@@H](Cc1c[nH]c2ccccc12)C(=O)O)CCC(=O)N[C@H](Cc1c[nH]c2ccccc12)C(=O)O)(CCC(=O)NC(CCC(=O)N[C@@H](Cc1c[nH]c2ccccc12)C(=O)O)(CCC(=O)N[C@H](Cc1c[nH]c2ccccc12)C(=O)O)CCC(=O)N[C@H](Cc1c[nH]c2ccccc12)C(=O)O)[N+](=O)[O-])N[C@@H](Cc1c[nH]c2ccccc12)C(=O)O`, the concentration giving a half-maximal response (EC50) in [1] was found to be 44 µM; in data set [2] it was 9.9 µM. Further, the Activity entry in data set [2] is “Dose-dependent effect”. The outcome in [7] and in data set [8] was Active. In addition, the CC50 at 72 h in data set [3] was greater than 100 µM.
